Source: BindingDB's records for doi:10.1016/j.bmcl.2008.01.028 (Nih, 2008)

Molecular target: cAMP-specific 3',5'-cyclic phosphodiesterase 4A (Homo sapiens, UniProt P27815)
Test: PDE4A Inhibition Assay
Description: Inhibition of PDE4A was performed using IMAP technology (Molecular Devices, CA). PDE4A1A mixture was dispensed into 1536-well black/solid bottom assay plates (Greiner Bio-One North America, NC) using a Flying Reagent Dispenser (Aurora Discovery, CA). The plates were centrifuged at 1000 rpm for 30s and compound was transferred to the assay plate using a Kalypsys pin tool. After incubation, cAMP was dispensed into the plates to initiate the reaction. IMAP binding reagent was then added to the assay plate after the reaction.

cAMP-specific 3',5'-cyclic phosphodiesterase 4A, sequence (P27815 whole entry): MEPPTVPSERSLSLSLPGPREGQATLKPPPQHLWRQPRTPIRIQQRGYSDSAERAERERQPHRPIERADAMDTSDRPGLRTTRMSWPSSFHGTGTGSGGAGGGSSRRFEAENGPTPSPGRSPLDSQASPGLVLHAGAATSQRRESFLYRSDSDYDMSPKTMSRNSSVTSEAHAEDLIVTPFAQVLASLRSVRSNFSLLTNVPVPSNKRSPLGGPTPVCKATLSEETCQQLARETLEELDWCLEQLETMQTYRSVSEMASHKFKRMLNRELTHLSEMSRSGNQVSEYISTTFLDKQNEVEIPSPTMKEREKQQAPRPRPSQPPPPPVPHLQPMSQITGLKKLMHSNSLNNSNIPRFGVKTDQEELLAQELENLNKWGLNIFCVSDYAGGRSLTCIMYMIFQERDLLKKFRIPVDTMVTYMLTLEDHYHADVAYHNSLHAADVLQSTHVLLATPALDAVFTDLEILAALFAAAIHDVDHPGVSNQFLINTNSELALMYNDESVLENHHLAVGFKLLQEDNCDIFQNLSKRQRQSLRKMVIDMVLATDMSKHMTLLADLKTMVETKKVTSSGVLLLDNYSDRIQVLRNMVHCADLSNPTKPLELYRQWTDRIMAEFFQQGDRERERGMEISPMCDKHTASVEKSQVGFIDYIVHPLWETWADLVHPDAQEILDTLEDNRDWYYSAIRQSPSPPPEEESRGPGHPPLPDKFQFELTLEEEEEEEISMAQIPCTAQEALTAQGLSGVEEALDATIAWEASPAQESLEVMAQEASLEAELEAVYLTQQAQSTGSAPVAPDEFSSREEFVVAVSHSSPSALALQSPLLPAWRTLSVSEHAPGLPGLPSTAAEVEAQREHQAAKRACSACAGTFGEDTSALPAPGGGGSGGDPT

SMILES	IC50	IC50 (pH 7.2, 22 °C)
COc1ccc(C2=Nn3c(nnc3-c3ccc(OC)cc3)SC2)cc1	8.4 µM	–
COc1cccc(-c2nnc3n2N=C(c2cc(OC)ccc2OC)CS3)c1	12.6 µM	–
COc1cccc(-c2nnc3n2N=C(c2ccc(OC)c(OC)c2)CS3)c1 [triazolothiadiazine, 5B]	–	0.126 µM
COc1ccc(-c2nnc3n2N=C(c2ccc(OC)c(OC)c2)CS3)cc1 [triazolothiadiazine, 5C]	–	0.0889 µM
COc1ccc(-c2nnc3n2N=C(c2ccc(OC)c(OC)c2)CS3)c(OC)c1 [triazolothiadiazine, 5E]	–	0.079 µM
COc1ccc(C2=Nn3c(nnc3-c3ccc(OC)c(OC)c3)SC2)cc1OC [triazolothiadiazine, 5G]	–	0.177 µM
COc1cc(OC)cc(-c2nnc3n2N=C(c2ccc(OC)c(OC)c2)CS3)c1 [triazolothiadiazine, 5H]	–	0.05 µM
COc1ccccc1C1=Nn2c(nnc2-c2ccccc2OC)SC1 [triazolothiadiazine, 6A]	–	20 µM
COc1cccc(-c2nnc3n2N=C(c2ccccc2OC)CS3)c1 [triazolothiadiazine, 6B]	–	13.4 µM
COc1ccc(-c2nnc3n2N=C(c2ccccc2OC)CS3)cc1 [triazolothiadiazine, 6C]	–	14.1 µM
COc1ccccc1C1=Nn2c(nnc2-c2cccc(OC)c2OC)SC1 [triazolothiadiazine, 6D]	–	> 20 µM
COc1ccc(-c2nnc3n2N=C(c2ccccc2OC)CS3)c(OC)c1 [triazolothiadiazine, 6E]	–	19.7 µM
COc1ccc(OC)c(-c2nnc3n2N=C(c2ccccc2OC)CS3)c1 [triazolothiadiazine, 6F]	–	19.6 µM
COc1ccc(-c2nnc3n2N=C(c2ccccc2OC)CS3)cc1OC [triazolothiadiazine, 6G]	–	8.9 µM
COc1cc(OC)cc(-c2nnc3n2N=C(c2ccccc2OC)CS3)c1 [triazolothiadiazine, 6H]	–	13.4 µM
COc1ccccc1C1=Nn2c(nnc2-c2ccccc2C)SC1 [triazolothiadiazine, 6I]	–	14.1 µM
CCOc1ccccc1-c1nnc2n1N=C(c1ccccc1OC)CS2 [triazolothiadiazine, 6J]	–	> 20 µM
COc1ccccc1C1=Nn2c(nnc2-c2ccccc2O)SC1 [triazolothiadiazine, 6K]	–	> 20 µM
COc1cccc(C2=Nn3c(nnc3-c3ccccc3OC)SC2)c1 [triazolothiadiazine, 7A]	–	12 µM
COc1cccc(C2=Nn3c(nnc3-c3cccc(OC)c3)SC2)c1 [triazolothiadiazine, 7B]	–	12.6 µM
COc1ccc(-c2nnc3n2N=C(c2cccc(OC)c2)CS3)cc1 [triazolothiadiazine, 7C]	–	8.4 µM
COc1cccc(C2=Nn3c(nnc3-c3cccc(OC)c3OC)SC2)c1 [triazolothiadiazine, 7D]	–	> 20 µM
COc1cccc(C2=Nn3c(nnc3-c3ccc(OC)cc3OC)SC2)c1 [triazolothiadiazine, 7E]	–	13.4 µM
COc1cccc(C2=Nn3c(nnc3-c3cc(OC)ccc3OC)SC2)c1 [triazolothiadiazine, 7F]	–	8 µM

SMILES	IC50	IC50 (pH 7.2, 22 °C)
COc1cccc(C2=Nn3c(nnc3-c3ccc(OC)c(OC)c3)SC2)c1 [triazolothiadiazine, 7G]	–	9 µM
COc1cccc(C2=Nn3c(nnc3-c3cc(OC)cc(OC)c3)SC2)c1 [triazolothiadiazine, 7H]	–	13.4 µM
COc1cccc(C2=Nn3c(nnc3-c3ccccc3C)SC2)c1 [triazolothiadiazine, 7I]	3.2 µM	–
CCOc1ccccc1-c1nnc2n1N=C(c1cccc(OC)c1)CS2 [triazolothiadiazine, 7J]	11.2 µM	–
COc1cccc(C2=Nn3c(nnc3-c3ccccc3O)SC2)c1 [triazolothiadiazine, 7K]	14.1 µM	–
COc1ccc(C2=Nn3c(nnc3-c3ccccc3OC)SC2)cc1 [triazolothiadiazine, 8A]	> 20 µM	–
COc1ccc(C2=Nn3c(nnc3-c3cccc(OC)c3)SC2)cc1 [triazolothiadiazine, 8B]	12.6 µM	–
COc1ccc(C2=Nn3c(nnc3-c3cccc(OC)c3OC)SC2)cc1 [triazolothiadiazine, 8D]	> 20 µM	–
COc1ccc(C2=Nn3c(nnc3-c3ccc(OC)cc3OC)SC2)cc1 [triazolothiadiazine, 8E]	> 20 µM	–
COc1ccc(C2=Nn3c(nnc3-c3cc(OC)ccc3OC)SC2)cc1 [triazolothiadiazine, 8F]	1.7 µM	–
COc1ccc(C2=Nn3c(nnc3-c3ccc(OC)c(OC)c3)SC2)cc1 [triazolothiadiazine, 8G]	7.5 µM	–
COc1ccc(C2=Nn3c(nnc3-c3cc(OC)cc(OC)c3)SC2)cc1 [triazolothiadiazine, 8H]	9.5 µM	–
COc1ccc(C2=Nn3c(nnc3-c3ccccc3C)SC2)cc1 [triazolothiadiazine, 8I]	12.5 µM	–
CCOc1ccccc1-c1nnc2n1N=C(c1ccc(OC)cc1)CS2 [triazolothiadiazine, 8J]	4.5 µM	–
COc1ccc(C2=Nn3c(nnc3-c3ccccc3O)SC2)cc1 [triazolothiadiazine, 8K]	8.4 µM	–
COc1ccc(C2=Nn3c(nnc3-c3ccccc3OC)SC2)c(OC)c1 [triazolothiadiazine, 9A]	15 µM	–
COc1cccc(-c2nnc3n2N=C(c2ccc(OC)cc2OC)CS3)c1 [triazolothiadiazine, 9B]	14.1 µM	–
COc1ccc(-c2nnc3n2N=C(c2ccc(OC)cc2OC)CS3)cc1 [triazolothiadiazine, 9C]	13.4 µM	–
COc1ccc(C2=Nn3c(nnc3-c3cccc(OC)c3OC)SC2)c(OC)c1 [triazolothiadiazine, 9D]	> 20 µM	–
COc1ccc(C2=Nn3c(nnc3-c3ccc(OC)cc3OC)SC2)c(OC)c1 [triazolothiadiazine, 9E]	> 20 µM	–
COc1ccc(C2=Nn3c(nnc3-c3cc(OC)ccc3OC)SC2)c(OC)c1 [triazolothiadiazine, 9F]	7.5 µM	–
COc1ccc(C2=Nn3c(nnc3-c3ccc(OC)c(OC)c3)SC2)c(OC)c1 [triazolothiadiazine, 9G]	6.7 µM	–
COc1cc(OC)cc(-c2nnc3n2N=C(c2ccc(OC)cc2OC)CS3)c1 [triazolothiadiazine, 9H]	> 20 µM	–
COc1ccc(C2=Nn3c(nnc3-c3ccccc3C)SC2)c(OC)c1 [triazolothiadiazine, 9I]	> 20 µM	–

SMILES	IC50	IC50 (pH 7.2, 22 °C)
CCOc1ccccc1-c1nnc2n1N=C(c1ccc(OC)cc1OC)CS2 [triazolothiadiazine, 9J]	> 20 µM	–
COc1ccc(C2=Nn3c(nnc3-c3ccccc3O)SC2)c(OC)c1 [triazolothiadiazine, 9K]	> 20 µM	–
COc1ccc(OC)c(C2=Nn3c(nnc3-c3ccccc3OC)SC2)c1 [triazolothiadiazine, 10A]	8.9 µM	–
COc1ccc(-c2nnc3n2N=C(c2cc(OC)ccc2OC)CS3)cc1 [triazolothiadiazine, 10C]	10.1 µM	–
COc1ccc(OC)c(C2=Nn3c(nnc3-c3cccc(OC)c3OC)SC2)c1 [triazolothiadiazine, 10D]	11.9 µM	–
COc1ccc(-c2nnc3n2N=C(c2cc(OC)ccc2OC)CS3)c(OC)c1 [triazolothiadiazine, 10E]	5.3 µM	–
COc1ccc(OC)c(C2=Nn3c(nnc3-c3cc(OC)ccc3OC)SC2)c1 [triazolothiadiazine, 10F]	11.9 µM	–
COc1ccc(OC)c(C2=Nn3c(nnc3-c3ccc(OC)c(OC)c3)SC2)c1 [triazolothiadiazine, 10G]	6.9 µM	–
COc1cc(OC)cc(-c2nnc3n2N=C(c2cc(OC)ccc2OC)CS3)c1 [triazolothiadiazine, 10H]	12.7 µM	–
COc1ccc(OC)c(C2=Nn3c(nnc3-c3ccccc3C)SC2)c1 [triazolothiadiazine, 10I]	6.3 µM	–
CCOc1ccccc1-c1nnc2n1N=C(c1cc(OC)ccc1OC)CS2 [triazolothiadiazine, 10J]	13.4 µM	–
COc1ccc(OC)c(C2=Nn3c(nnc3-c3ccccc3O)SC2)c1 [triazolothiadiazine, 10K]	> 20 µM	–
COc1ccccc1-c1nnc2n1N=C(c1c(OC)cccc1OC)CS2 [triazolothiadiazine, 11A]	> 20 µM	–
COc1cccc(-c2nnc3n2N=C(c2c(OC)cccc2OC)CS3)c1 [triazolothiadiazine, 11B]	> 20 µM	–
COc1ccc(-c2nnc3n2N=C(c2c(OC)cccc2OC)CS3)cc1 [triazolothiadiazine, 11C]	19.7 µM	–
COc1cccc(-c2nnc3n2N=C(c2c(OC)cccc2OC)CS3)c1OC [triazolothiadiazine, 11D]	> 20 µM	–
COc1ccc(-c2nnc3n2N=C(c2c(OC)cccc2OC)CS3)c(OC)c1 [triazolothiadiazine, 11E]	> 20 µM	–
COc1ccc(OC)c(-c2nnc3n2N=C(c2c(OC)cccc2OC)CS3)c1 [triazolothiadiazine, 11F]	> 20 µM	–
COc1ccc(-c2nnc3n2N=C(c2c(OC)cccc2OC)CS3)cc1OC [triazolothiadiazine, 11G]	14.1 µM	–
COc1cc(OC)cc(-c2nnc3n2N=C(c2c(OC)cccc2OC)CS3)c1 [triazolothiadiazine, 11H]	19.6 µM	–
COc1cccc(OC)c1C1=Nn2c(nnc2-c2ccccc2C)SC1 [triazolothiadiazine, 11I]	14.1 µM	–
CCOc1ccccc1-c1nnc2n1N=C(c1c(OC)cccc1OC)CS2 [triazolothiadiazine, 11J]	> 20 µM	–
COc1cccc(OC)c1C1=Nn2c(nnc2-c2ccccc2O)SC1 [triazolothiadiazine, 11K]	> 20 µM	–
